Laboratory results published in patent US6011052A, “Pyrazolone derivatives as MCP-1 antagonists” (Warner-Lambert Company, priority 1997, dated 2000).

Columns and labels:
[1] = tested on: rat T cells, skin DHR sites; assay: T cell recruitment at sites of cutaneous delayed hypersensitivity (DHR) to KLH in rats; assay type: in vivo, rat (Lewis); settings: 24 hours
Method: Inbred, approximately 200 gm, male Lewis rats were used in all experiments. Cutaneous delayed hypersensitivity (DHR) was induced as previously described (1). Briefly, rats were sensitized to KLH (keyhole limpet hemocyanis) (Sigma Chemical Co., St. Louis, Mo.) by administering 50 μg KLH in 0.1 ml complete Freund's adjuvant (CFA; Sigma Chemical Co.) into each of 4 subcutaneous sites. After 14 days, DHR was elicited by the challenge of 5 μg KLH in PBS into multiple intradermal sites on the back. Analysis was performed 24 hours after antigen challenge. For each experiment, there were at least three groups of animals of at least four animals in each group. […]
T cell recruitment at sites of DHR was quantified using methods previously described (1-4). […] The cells in the effluent were highly purified (>95%) rat T cells as assessed by anti-rat CD3 (monoclonal antibody KT3, Biosource International, Camarillo, Calif.) immunoreactivity by flow cytometry. […] Skin challenge sites (8 mm in diameter) were counted on a γ counter 24 hours after injection of radiolabeled T cells. Lung, liver, and spleen were also collected and counted as comparative indices for evaluation of input.
Statistical significance was determined using a paired student's t-test. […]

[2] = tested on: skin DHR sites; assay: Histologic analysis of skin DHR sites in rats; assay type: in vivo, rat (Lewis); settings: 15 mg/kg per os, compared to sensitized animals given vehicle alone
Method: Inbred, approximately 200 gm, male Lewis rats were used in all experiments. Cutaneous delayed hypersensitivity (DHR) was induced as previously described (1). Briefly, rats were sensitized to KLH (keyhole limpet hemocyanis) (Sigma Chemical Co., St. Louis, Mo.) by administering 50 μg KLH in 0.1 ml complete Freund's adjuvant (CFA; Sigma Chemical Co.) into each of 4 subcutaneous sites. After 14 days, DHR was elicited by the challenge of 5 μg KLH in PBS into multiple intradermal sites on the back. Analysis was performed 24 hours after antigen challenge. For each experiment, there were at least three groups of animals of at least four animals in each group. One group of nonsensitized, naive animals was used as a negative control and received vehicle alone (consisting of 0.5% hydroxypropylmethylcellulose/0.2% Tween 80 in water) per os at the time of challenge. As positive controls, one group of sensitized animals received vehicle alone per os at the time of KLH challenge. A third group consisted of sensitized animals that received compound suspended in vehicle per os at the time of KLH challenge.
For histologic analysis, representative skin specimens were fixed in 10% phosphate-buffered formalin, processed by routine histological techniques, cut at a thickness of […], and sections stained with hematoxylin and eosin.

[3] = tested on: CD3-Blast (MCP-1 mediated chemotaxis); assay: MCP-1 mediated CD3-Blast chemotaxis assay (transendothelial migration over ECV304 cells); assay type: cell-based; settings: Homo sapiens, ECV-304; for inhibition at 10 µM: range given for multiple replications
Method: Recombinant human MCP-1 was obtained from Peprotech (Rockey Hill, N.J.). […] RBCs were removed by hypotonic lysis. […] The cells are expanded and cultured for up to 3 weeks. […] The endothelial cells used for this assay were the endothelial cell line ECV304, obtained from the ECACE (Porton Downs, UK). Endothelial cells were cultured on 6.5 mm diameter Transwell culture inserts (Costar) with a […] pore size. […] Twenty four hours before the assay, 2×10^5 ECV304 cells were plated onto each innert of the 24 well chemotaxis plate and incubated at 37° C. MCP-1 (diluted in assay medium) with or without compounds, was added to the 24-well tissue culture plates in a final volume of […]. […] The cells that had migrated to the bottom chamber were enumerated using flow cytommetry. […] of the cell suspension from the lower chamber was placed in a tube, and relative cell counts were obtained by acquiring events for a set time period of 30 seconds. […] Background migration was determined by counting cells that migrated in the absence of MCP-1 in the lower chamber. This background migration of cells per 30 second count was substrated from the migration to MCP-1 to obtain specific migration. The percent inhibition by compounds of directed migration was determined by the following formula: 1 minus the specific migration in the presence of MCP-1 and compound, divided by the specific migration in the presence of just MCP-1. [drawing 13]

[4] = target: T1, MCP-1 receptor (Homo sapiens, UniProt P41597); assay: MCP-1 binding assay (125I-labeled MCP-1, THP-1 cell membranes); settings: for IC50: THP-1 membranes, 0.2 nM 125I-MCP-1, 30 minutes at room temperature, read-out: Inhibition of MCP-1 Binding IC50; for inhibition at 10 µM: printed in the IC50 μM column, read-out: Inhibition of MCP-1 Binding, percent @ 10 μM
T1 construct: endogenous in cells; host or cells: THP-1 cells (ATCC TIB 202), selected for increased MCP-1 receptor expression
T1 sequence (P41597 1-360 isoform P41597-2): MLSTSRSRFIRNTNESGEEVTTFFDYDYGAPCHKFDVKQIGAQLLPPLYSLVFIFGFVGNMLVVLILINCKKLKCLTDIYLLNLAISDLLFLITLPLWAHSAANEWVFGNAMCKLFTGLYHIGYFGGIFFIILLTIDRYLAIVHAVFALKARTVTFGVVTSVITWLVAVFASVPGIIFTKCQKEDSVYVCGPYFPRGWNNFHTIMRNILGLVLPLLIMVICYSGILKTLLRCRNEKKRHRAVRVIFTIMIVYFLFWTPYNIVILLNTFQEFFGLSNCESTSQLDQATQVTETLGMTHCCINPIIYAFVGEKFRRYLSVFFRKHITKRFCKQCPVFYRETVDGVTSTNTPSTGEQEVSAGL
Method: Membranes used in the MCP-1 binding assay were prepared from THP-1 cells (human monocytic cell line source--American Type Culture Collection, Tumor Immunology Bank #202, Rockville, Md., accession no. ATCC TIB 202) selected for increased levels of expression of the MCP-1 receptor. Cells were harvested by centrifugation and washed twice in ice-cold PBS (phosphate-buffered saline) and the cell pellet was frozen at -80° C. in some cases. Cells were resuspended in ice-cold lysis buffer 5 mM HEPES (2-(4N-[2-hydroxyethyl] piperazin-1-yl)-N'-(2-ethanesulfonic acid), pH 7.5, 2 mM EDTA (ethylenediaminetetraacetic acid), 5 ug/ml each leupeptin, aprotinin, chymostatin (protease inhibitors), and 100 ug/ml PMSF (phenylmethane sulfonyl fluoride--also a protease inhibitor)) at a concentration of 5×10^7 cells/ml. The cell suspension was dounced 10-15 times using the B pestle (small pestle of tissue grinder--clearance is 0.07 mm; source--Fisher Scientific) on ice. Nuclei and debris were removed by centrifugation at 500-1000×g for 10 minutes at 4° C. The supernatant was transferred to a fresh tube and centrifuged at 25,000×g for 30 minutes at 4° C. The supernatant was aspirated and the pellet was resuspended in freezing buffer (10 mM HEPES, pH 7.5, 300 mM sucrose, 1 ug/ml each leupeptin, aprotinin, chymostatin, and 10 ug/ml PMSF) using a minihomogenizer until all clumps were resolved. Membranes were aliquoted and frozen at minus 70-85° C. until needed. Typical binding assays used 10-20 ug/well of total membrane protein as determined with a standard protein assay (e.g. BioRad, Richmond, Calif.) or: as determined with a Bradford protein assay (e.g. BioRad, Richmond, Calif.).
For binding, different amounts of membranes were included in the binding reaction along with 0.2 nM I^125 -labeled MCP-1 (Amersham, Arlington Heights, Ill.) with or without unlabeled cold competitor MCP-1 (Peprotech, Rocky Hill, N.J.) (at 500 nM). Binding reactions were performed in a final volume of 100 ul in a binding buffer containing 10 mM HEPES, pH 7.2, 1 mM CaCl2, 5 mM MgCl2, 0.5% BSA (bovine serum albumin). After 30 minutes at room temperature, the binding reactions were filtered through GF/C filters (Whatman glass fiber filters, Type C) or GF/B unifilter plates (Parkard) which had been pre-soaked with 0.3% poly ethyleneimine and washed twice with binding buffer containing 0.5 M NaCl. Filters were dried and counted in a Beta-Plate scintillation counter using standard scintillation fluid. Final concentration of compound in the binding assay ranged from 0.05-100 μM. Compounds were dissolved in DMSO (dimethyl sulfoxide). Final concentrations of DMSO in the binding were kept constant at 0.05%.
IC50s were calculated using a 3-parameter logistic fit. Negative control contained same amount of DMSO vehicle asused in wells containing compound. Positive control contained 500 nM cold competitor MCP-1 in DMSO vehicle.

Row | IC50 [4] | SMILES | inhibition at 10 µM [3] | further results
1 | 1.27 µM | Nc1c(C2CCCCC2)[nH][nH]c1=O [Example 1, 4-Amino 5-Cyclohexyl-3-Pyrazolone] | 33 to 70% | statistical significance of inhibition of T cell recruitment in rat DHR ([1]; 15 mg/kg per os at the time of antigen challenge): statistically significant inhibitory effect; inhibition of recruitment of 111In-labeled rat T cells to skin DHR sites ([1]; once per os at the time of antigen challenge, various doses (FIG. 3)): inhibited the recruitment of ^III In-labeled rat T cells to skin DHR sites in a dose-dependent fashion; inflammatory activity of skin sites (histology) [2]: attenuated in inflammatory activity; mononuclear cells infiltration in deep dermis (histology) [2]: reduced mononuclear cells infiltration in deep dermis
2 | – | Nc1c(-c2ccncc2)[nH][nH]c1=O [Example 3] | 5 to 49% | inhibition at 10 µM [4]: 95%
3 | 0.73 µM | Nc1c(-c2ccccc2)n[nH]c1O [Example 4] | 58 to 61% | –
4 | – | Cn1[nH]c(=O)c(N)c1-c1ccccc1 [Example 5] | -23 to 48% | inhibition at 10 µM [4]: 90%
5 | 1.49 µM | COc1ccc(-c2[nH]nc(O)c2N)cc1 [Example 6] | – | –
6 | 1.65 µM | Nc1c[nH]nc1O [Example 9] | – | –
7 | – | Cc1[nH][nH]c(=O)c1N [Example 10] | 25 to 27% | –
8 | 2.27 µM | Cc1c(N)c(=O)n(-c2ccccc2)n1C [Example 13] | – | –
9 | 6.24 µM | NC(=O)c1[nH]n(-c2ccc(Cl)cc2Cl)c(=O)c1N [Example 19] | – | IC50 ([3]; unit inferred, read-out: Inhibition of MCP-1 mediated chemotaxis of CD3-Blast, IC50): 0.48 µM
10 | 5.64 µM | Oc1[nH]nc2c1NCCC2 [Example 37] | – | –
